Test results as given in patent publication US20030232862A1 (priority 2002, published 2003).
Entries after “also recorded” stand apart in the source; their conditions may differ. Where a name gives a salt, the structure may show the parent alone.

Columns and labels:
[1] = tested on: HT-29 colon adenocarcinoma cells; experiment: Apoptosis by DNA fragmentation assay in HT-29 cells; format: cell-based, human; settings: for Apoptosis: Table 9 qualitative profile; as to Apoptosis: key: −: Not active; +: Slightly active; + +: Moderately active; + + +: Strongly active; + + + +: Highly active
Cyclooxygenase (COX) = molecular target: T1, Cyclooxygenase (COX) (Ovis aries, UniProt P05979); experiment: COX inhibition assay, single dose screen (Table 2); format: biochemical
T1 sequence (P05979 25-600): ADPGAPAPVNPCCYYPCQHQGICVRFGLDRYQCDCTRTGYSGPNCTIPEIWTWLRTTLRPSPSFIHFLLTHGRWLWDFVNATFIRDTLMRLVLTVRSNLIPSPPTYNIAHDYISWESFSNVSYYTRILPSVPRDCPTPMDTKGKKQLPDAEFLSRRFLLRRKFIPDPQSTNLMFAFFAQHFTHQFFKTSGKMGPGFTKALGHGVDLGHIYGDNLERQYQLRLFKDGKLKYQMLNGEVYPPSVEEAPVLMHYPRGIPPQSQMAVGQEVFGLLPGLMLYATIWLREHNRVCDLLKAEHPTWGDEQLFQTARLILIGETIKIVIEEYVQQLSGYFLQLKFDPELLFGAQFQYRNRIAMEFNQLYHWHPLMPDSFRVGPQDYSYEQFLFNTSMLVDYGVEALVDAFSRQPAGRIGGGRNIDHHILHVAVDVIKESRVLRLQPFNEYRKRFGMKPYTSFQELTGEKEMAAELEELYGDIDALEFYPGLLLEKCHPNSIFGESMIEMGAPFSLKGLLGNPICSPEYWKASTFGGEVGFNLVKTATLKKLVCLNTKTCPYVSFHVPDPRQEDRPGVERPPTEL

[2] = tested on: premalignant lesions in mouse mammary gland organ culture; experiment: Mammary gland organ culture model; format: cell-based; settings: Table 9 qualitative profile; also: key: −: Not active; +: Slightly active; + +: Moderately active; + + +: Strongly active; + + + +: Highly active
Source text: Test compounds identified by the above methods can be tested for antineoplastic activity by their ability to inhibit the incidence of pre-neoplastic lesions in a mammary gland organ culture system. This mouse mammary gland organ culture technique has been successfully used by other investigators to study the effects of known antineoplastic agents such as certain NSAIDs, retinoids, tamoxifen, selenium, and certain natural products, and is useful for validation of the screening method of the present invention.
For example, female BALB/c mice can be treated with a combination of estradiol and progesterone daily, in order to prime the glands to be responsive to hormones in vitro. The animals are sacrificed, and thoracic mammary glands are excised aseptically and incubated for ten days in growth media supplemented with insulin, prolactin, hydrocortisone, and aldosterone. DMBA (7,12-dimethylbenz(a)anthracene) is added to medium to induce the formation of premalignant lesions. Fully developed glands are then deprived of prolactin, hydrocortisone, and aldosterone, resulting in the regression of the glands but not the pre-malignant lesions.
The test compound is dissolved in DMSO and added to the culture media for the duration of the culture period. At the end of the culture period, the glands are fixed in 10% formalin, stained with alum carmine, and mounted on glass slides. The incidence of forming mammary lesions is the ratio of the glands with mammary lesions to […]. The incidence of mammary lesions in test compound treated glands is compared with that of the untreated glands.
The extent of the area occupied by the mammary lesions can be quantitated by projecting an image of the gland onto a digitation pad. The area covered by the gland is traced on the pad and considered as 100% of the area. The space covered by each of the non-regressed structures is also outlined on the digitization pad and quantitated by the computer.
Mammary gland organ culture experiment were performed as previously described (Mehta and Moon, Cancer Research, 46: 5832-5835, 1986).

[3] = molecular target: cGMP PDE purified from human colon HT-29 cultured tumor cells (Homo sapiens, UniProt O76074); experiment: cGMP PDE inhibition assay; format: biochemical; settings: for PDE Inhibition: Table 9 qualitative profile; for IC50: read-out: IC50 for inhibition of cGMP PDE
[4] = tested on: SW-480 colon adenocarcinoma cells
HT-29 cells = experiment: Growth inhibition of HT-29 cells (SRB assay; trypan blue counting in time course); format: cell-based, human; settings: for Growth Inhibition: Table 9 qualitative profile
[5] = tested on: SW-480 colon adenocarcinoma cells; experiment: Apoptosis fold induction protocol (DNA fragmentation, Table 4); settings: Homo sapiens, SW480, read-out: Fold induction at 100 μM (apoptosis), 100 μM; cell line not given
[6] = molecular target: T2, purified cyclooxygenase (Type 1) from ram seminal vesicles (Ovis aries, UniProt P05979); experiment: Purified cyclooxygenase (Type 1) activity; format: biochemical; settings: FIG. 5
T2 construct: using purified cyclooxygenase from ram seminal vesicles as described previously; from tissue; host or cells: ram seminal vesicles
T2 sequence (P05979 25-600): T1 sequence (P05979 25-600)

[7] = tested on: PDE4 purified from human colon HT-29 cultured tumor cells; experiment: PDE4 inhibition assay; format: biochemical
Protocol: (Thompson, W. J., Teraski, W. L., Epstein, P. M., Strada, S. J., Advances in Cyclic Nucleotide Research, 10:69-92, 1979, which is incorporated herein by reference). […] The mixture is incubated at 30° C. for 10 minutes with isolated PDE of this invention. Reactions are terminated, for example, by boiling the reaction mixture for 75 seconds. After cooling on ice, 100 μl of 0.5 mg/mL snake venom (O. Hannah venom available from Sigma) is added and incubated for 10 minutes at 30° C. This reaction is then terminated by the addition of an alcohol, e.g. 1 mL of 100% methanol. Assay samples are applied to 1 mL Dowex 1-X8 column; and washed with 1 mL of 100% methanol. The amount of radioactivity in the breakthrough and the wash from the column is combined and measured with a scintillation counter. The degree of phosphodiesterase inhibition is determined by calculating the amount of radioactivity in drug-treated reactions and comparing against a control sample (a reaction mixture lacking the tested compound but with drug solvent).

[8] = molecular target: T3, cGMP binding sites of GST-cGB-PDE5 fusion protein (Homo sapiens, UniProt O76074); experiment: cGMP binding assay with GST-cGB-PDE5 fusion protein; settings: 3H-cGMP 2 μM
T3 construct: made in house; host or cells: E. coli BL21 (DE3)

[9] = molecular target: T4, novel cGMP-specific PDE Peak B from SW480 cells (Homo sapiens, UniProt O00408); experiment: cGMP hydrolysis by novel PDE Peak B isolated from SW480 cells; format: biochemical
T4 construct: IC50 Peak B (μM)
T4 sequence (O00408 whole entry): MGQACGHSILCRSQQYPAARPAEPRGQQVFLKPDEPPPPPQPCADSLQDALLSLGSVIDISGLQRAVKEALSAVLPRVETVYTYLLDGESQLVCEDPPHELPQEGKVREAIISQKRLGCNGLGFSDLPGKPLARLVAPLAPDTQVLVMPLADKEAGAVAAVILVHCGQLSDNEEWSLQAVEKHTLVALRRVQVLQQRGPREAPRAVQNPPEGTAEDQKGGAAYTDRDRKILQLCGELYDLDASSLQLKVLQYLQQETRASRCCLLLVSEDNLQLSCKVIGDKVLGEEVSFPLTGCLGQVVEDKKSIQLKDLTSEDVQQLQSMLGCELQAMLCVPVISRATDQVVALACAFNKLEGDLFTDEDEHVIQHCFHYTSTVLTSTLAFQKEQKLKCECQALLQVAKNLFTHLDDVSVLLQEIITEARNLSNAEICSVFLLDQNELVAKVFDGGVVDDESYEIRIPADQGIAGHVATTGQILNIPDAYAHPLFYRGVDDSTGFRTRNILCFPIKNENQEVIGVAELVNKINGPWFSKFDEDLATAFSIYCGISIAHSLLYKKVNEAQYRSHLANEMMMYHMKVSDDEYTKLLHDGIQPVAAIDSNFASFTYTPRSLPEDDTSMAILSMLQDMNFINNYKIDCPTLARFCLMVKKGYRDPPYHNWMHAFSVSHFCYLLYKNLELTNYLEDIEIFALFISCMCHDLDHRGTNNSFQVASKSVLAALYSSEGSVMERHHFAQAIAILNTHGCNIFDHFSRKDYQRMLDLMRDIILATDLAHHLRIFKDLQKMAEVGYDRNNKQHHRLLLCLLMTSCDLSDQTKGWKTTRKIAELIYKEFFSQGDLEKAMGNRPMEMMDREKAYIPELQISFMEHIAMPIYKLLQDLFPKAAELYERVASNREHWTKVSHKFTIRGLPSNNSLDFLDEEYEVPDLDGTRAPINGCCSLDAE

[10] = molecular target: T5, PDE Peak A (PDE5) from SW480 cells (Homo sapiens, UniProt O76074); experiment: cGMP hydrolysis by PDE Peak A (PDE5) isolated from SW480 cells; format: biochemical
T5 construct: To isolate the novel phosphodiesterase from SW480, approximately four hundred million SW480 cells were grown to confluence; endogenous in cells; host or cells: SW480 colon cancer cells; 105,000 g supernatant, DEAE-Trisacryl M fraction

[11] = Single, escalating dose human study; format: in vivo
28-day study in rats = format: in vivo
[12] = Seven-day dose-range finding study in rats; format: in vivo; settings: any dose level
[13] = tested on: PrEC primary prostate epithelial cells derived from normal prostate; experiment: Histone-associated DNA fragmentation in PrEC cells; format: cell-based; settings: 50 μM, up to 4 days
Protocol: (§1) The androgen-sensitive prostate tumor cell line, LNCaP (from ATCC (Rockville, Md.)) was propagated under standard conditions using […] medium containing 5% fetal calve serum and 2 mM glutamine. Primary prostate epithelial cell cultures (PrEC) derived from normal prostate (from Clonetics Inc. (San Diego, Calif.)) were grown under the same conditions as the tumor cell line except a serum-free medium optimized for the growth of such cultures was used (Clonetics Inc). For the experiments, LNCaP or PrEC cells were seeded in 96 well plates at a density of 10,000 cells per well. After 24 hours, the cells were treated with either vehicle (0.1% DMSO) or 50 μM Compound I (free base) solubilized in DMSO. After various drug treatment times (4, 24, 48, 72, or 99 hours) the cells were lysed and processed for measurement of histone-associated DNA as an indicator of apoptotic cell death (see, Piazza et al., Cancer Research 57: 2452-2459, 1997).

[14] = dog, in vivo
[15] = tested on: LNCaP prostate tumor cell line; experiment: Histone-associated DNA fragmentation in LNCaP cells; format: cell-based; settings: 50 μM, up to 4 days
Protocol: as §1

human breast xenograft = settings: in vivo; cited from earlier work

## CCN(CC)CCSC12CC(=O)OC1(C)/C(=C/c1ccc(S(C)(=O)=O)cc1)c1ccc(F)cc12 (racemic) [A, rac-threo-(E)-1-(N,N′-diethylaminoethanethio)-1-(butan-1′,4′-olido)-[3′,4′:1,2]-6-fluoro-2-methyl-3-(p-methylsulfonylbenzylidene)-indan]
[1]
  Apoptosis: + +
Cyclooxygenase (COX); 100 μM
  % Inhibition at 100 μM (cyclooxygenase): <25%
[2]
  Mammary Gland Organ Culture: + +
[3]
  % Inhibition at 10 μM (cGMP PDE): <25%
  PDE Inhibition: −
[4]
  Fold induction at 100 μM (apoptosis): <2.0 fold
HT-29 cells; 100 μM
  % Inhibition at 100 μM (growth): 68%
HT-29 cells
  Growth Inhibition: + + +

## COc1cc(/C=C2/C(C)=C(CC(=O)O)c3cc(F)ccc32)cc(OC)c1OC [Compound B, (Z)-5-Fluoro-2-methyl-1-(3,4,5-trimethoxybenzylidene)-3-acetic acid]
[1]; Homo sapiens, HT-29, 48 hours
  EC50: ~175 µM
[1]
  Apoptosis: + + +
Cyclooxygenase (COX)
  inhibition at 100 µM: < 25%
Cyclooxygenase (COX); Table 9 qualitative profile
  COX Inhibition: −
[5]
  fold induction at 100 µM: > 2
[2]
  Mammary Gland Organ Culture: + +
[3]
  PDE Inhibition: + + +
  IC50: 18 µM
[3]; read-out: % Inhibition at 10 μM (cGMP PDE), 10 μM
  inhibition at 10 µM: < 25%
[3]; read-out: inhibition of cGMP PDE at 20 μM, 20 μM
  inhibition at 20 µM: > 50%
[6]
  COX-I inhibition: neither test compound B and E significantly inhibits COX-I
[7]
  IC50: 58 µM
HT-29 cells
  Growth Inhibition: + + +
[8]
  competition with cGMP in binding of GST-cGB-PDE5: do not bind to the cGMP binding sites of PDE5

## COc1cc(/C=C2/C(C)=C(CC(=O)NCc3ccccc3)c3cc(F)ccc32)cc(OC)c1OC [Compound E, (Z)-5-Fluoro-2-methyl-1-(3,4,5-trimethoxybenzylidene)-3-indenylacetamide, N-benzyl]
[1]
  Apoptosis: + + + +
[2]
  Mammary Gland Organ Culture: + + + +
[3]
  % Inhibition at 10 μM (cGMP PDE): 75%
  PDE Inhibition: + + + +
  IC50: 0.08 µM
[6]
  COX-I inhibition: neither test compound B and E significantly inhibits COX-I
[9]
  competitive (with cGMP) inhibition/binding, Peak B: competitively (with cGMP) binds; also recorded: competitively inhibited
HT-29 cells
  Growth Inhibition: + + + +
[10]
  competitive (with cGMP) inhibition/binding, Peak A: competitively (with cGMP) bind; also recorded: competitively inhibited

## CC1=C(CC(=O)NCc2ccccc2)c2cc(F)ccc2/C1=C\c1ccncc1 [Compound I, (Z)-5-fluoro-2-methyl-(4-pyridylidene)-3-(N-benzyl)indenylacetamide hydrochloride]
[11]
  safety in human study: safe
28-day study in rats; 2000 mg/kg/day
  liver weights, 28-day study: statistically significant increase in liver weights
  thyroid weights, 28-day study: statistically significant increases in thyroid weights
28-day study in rats; generally limited to a small number of animals at 2000 mg/kg/day
  histopathological evaluation, 28-day study: traces of follicular cell hypertrophy, increased numbers of mitotic figures (suggestive of possible cell proliferation) in the thyroid gland and mild centrilobular hypertrophy in the liver
[12]
  hematology, blood chemistry, microscopic pathology, seven-day study: No hematological or blood chemistry changes nor any microscopic pathology changes
[13]
  DNA fragmentation in PrEC cells: did not affect DNA fragmentation
[14]
  drug-related effects, single and seven consecutive doses in dogs: At no time in either dosing phase were any obvious signs of drug-related effects observed
[14]; 1000 mg/kg
  signs of toxicity, single dose in dogs: no signs of toxicity
[15]
  histone-associated fragmented DNA in LNCaP cell cultures: time-dependent increase

## COc1cc2ncnc(Nc3ccc(F)c(Cl)c3)c2cc1OCCCN1CCOCC1 [Iressa, 4-quinazolinamine, N-(3-chloro-4-fluorophenyl)-7-methoxy-6-[3-(4-morpholinyl)propoxy]-(9CI)]
Human breast xenograft
  human breast xenograft growth: inhibits human breast xenograft growth
